Assay results taken from patent US20120128654A1, “Allantoin Administration for the Treatment of Neurodegenerative Disease and Neurotrauma” (UNIVERSITY OF CINCINNATI, priority 2009, published 2012).
“Also recorded” adds a separate entry of the source.

Tests used:
[1] = Whole brain allantoin levels after subcutaneous allantoin pellets (blood brain barrier crossing); assay type: in vivo, Sprague Dawley rats; conditions: non-lesioned rats, s.c. allantoin pellets, three days following pellet implantation, relative to control rats
From the text: Continuous s.c. delivery of INO, KO and ALL was achieved by implanting matrix-driven pellets into the s.c. space. Animals were anesthetized with isofluorane and prepared for surgery using sterile procedures. A small incision was made posterior to the scapula and the pellet was placed in the subscapular space contralateral to the incision. This placement technique prevents migration of the pellet towards the incision, thereby reducing the incidents of rejection. Finally, the incision was closed using aseptic procedures. To determine the roles of UA and allantoin in inosine-mediated neuroprotection, animals were treated with the urate oxidase inhibitor KO. This approach has been widely used to prevent the enzymatic metabolism of UA to allantoin in other rodent models of disease.
To measure brain allantoin levels, whole brains were freeze dried, ground into a fine powder and homogenized in 0.8 ml of 2.5% trichloroacetic acid (TCA) per 100 mg. The homogenate was centrifuged at 18,000 rpm for 15 min. […] The remaining supernatant was then analyzed for allantoin.
To determine the ability of allantoin to cross the intact blood brain barrier (BBB), non-lesioned rats received either allantoin pellets or sham implantation. […] Whole brain levels of allantoin were determined enzymatically.

[2] = Oral allantoin administration (gavage), plasma allantoin levels in rats; assay type: in vivo, Sprague Dawley rats
Description: Rats also received oral allantoin via gastric gavage. Rats were firmly restrained via grasping the loose skin of the neck and back to immobilize the head. While maintaining the rat in an upright position, the gavage needle (20 G×1½″) was passed through the side of the mouth and advanced into the esophagus by following the roof of the mouth and advanced further toward the stomach. After the needle was passed to the correct length, 125 mg of allantoin, dissolved in water or water, was injected. This procedure was repeated daily for five days.
For plasma analysis of allantoin venous blood was obtained from the right ventricle (rat) and collected from repeated blood draws (African green monkey). Blood was immediately centrifuged at 10,500 rpms (this needs to be in G) for 5 minutes. Supernatant was then removed and analyzed for allantoin. […] Following a 15 minute incubation, absorbance was read on a spectrometer at 340 nm. […] Following a 10 minute incubation absorbance was once again measured at 340 nm. The final absorbance was subtracted from the absorbance following the addition of allantoinase. […]
Rats received oral allantoin or water via gavage once daily for 5 days. […] Allantoin levels in plasma were determined utilizing the enzymatic detection assay. […]

[3] = in vivo; cited from earlier work

With `NC(=O)NC1NC(=O)NC1=O` (stereo not shown) [allantoin] the “whole brain allantoin levels” value [1] was “approximately double; also recorded: significant increase”, the plasma allantoin levels ([2]; rat, 125 mg oral gavage once daily for 5 days, blood two hours following final dose, vs water) was “doubling; also recorded: significant increase” and the negative health consequences ([2]; rats, oral allantoin once daily for 5 days) was “Neither the rats nor the monkeys exhibited any obvious negative health consequences”. The antioxidant properties [3] was “antioxidant properties in vivo”.
